Test results reported in patent publication US20260138961A1, “MODULATORS OF MITOCHONDRIAL DNA REPLICATION” (Pretzel Therapeutics, Inc., priority 2022, published 2026).

target: T1, POLγ W748S + E1143G (Homo sapiens, UniProt P54098, E1143G/W748S); experiment: DNA polymerization assay, W748S + E1143G mutant; format: biochemical; conditions: stimulation of polymerase activity, primed M13mp18 ssDNA, 37° C. 2 hours
T1 sequence (P54098 1-1239 W748S/E1143G): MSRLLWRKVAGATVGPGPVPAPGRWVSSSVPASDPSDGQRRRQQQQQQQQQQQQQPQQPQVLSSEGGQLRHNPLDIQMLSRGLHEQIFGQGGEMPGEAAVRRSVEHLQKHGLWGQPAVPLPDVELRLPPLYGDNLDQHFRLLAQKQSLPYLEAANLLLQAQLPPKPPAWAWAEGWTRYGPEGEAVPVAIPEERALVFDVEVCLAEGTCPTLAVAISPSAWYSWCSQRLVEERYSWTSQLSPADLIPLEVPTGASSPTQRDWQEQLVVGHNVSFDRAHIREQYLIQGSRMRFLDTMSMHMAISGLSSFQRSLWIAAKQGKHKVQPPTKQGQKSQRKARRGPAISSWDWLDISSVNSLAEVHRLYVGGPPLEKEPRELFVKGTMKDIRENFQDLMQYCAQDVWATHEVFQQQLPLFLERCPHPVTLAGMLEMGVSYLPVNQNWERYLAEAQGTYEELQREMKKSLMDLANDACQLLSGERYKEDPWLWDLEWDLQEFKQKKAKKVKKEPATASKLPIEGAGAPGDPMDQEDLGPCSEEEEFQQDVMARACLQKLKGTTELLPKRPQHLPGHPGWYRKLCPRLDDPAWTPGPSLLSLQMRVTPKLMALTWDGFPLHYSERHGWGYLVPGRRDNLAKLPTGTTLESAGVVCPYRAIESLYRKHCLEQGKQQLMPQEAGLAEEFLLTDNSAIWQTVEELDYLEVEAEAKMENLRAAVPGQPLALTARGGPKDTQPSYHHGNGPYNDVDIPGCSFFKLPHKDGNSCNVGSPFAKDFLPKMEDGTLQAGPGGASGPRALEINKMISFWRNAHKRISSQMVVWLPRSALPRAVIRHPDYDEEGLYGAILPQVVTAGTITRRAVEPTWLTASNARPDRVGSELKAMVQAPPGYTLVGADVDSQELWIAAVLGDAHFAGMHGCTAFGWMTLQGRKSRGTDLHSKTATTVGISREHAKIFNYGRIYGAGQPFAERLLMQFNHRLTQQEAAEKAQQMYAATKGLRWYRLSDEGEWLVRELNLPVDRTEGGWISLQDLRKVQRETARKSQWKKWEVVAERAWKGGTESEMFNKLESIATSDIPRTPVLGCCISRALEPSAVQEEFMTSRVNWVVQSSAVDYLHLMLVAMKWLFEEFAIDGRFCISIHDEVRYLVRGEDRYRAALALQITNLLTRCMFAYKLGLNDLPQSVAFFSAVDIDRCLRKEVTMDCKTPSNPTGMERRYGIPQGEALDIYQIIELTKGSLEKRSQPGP
T1 sequence (Q9UHN1 1-485 partner): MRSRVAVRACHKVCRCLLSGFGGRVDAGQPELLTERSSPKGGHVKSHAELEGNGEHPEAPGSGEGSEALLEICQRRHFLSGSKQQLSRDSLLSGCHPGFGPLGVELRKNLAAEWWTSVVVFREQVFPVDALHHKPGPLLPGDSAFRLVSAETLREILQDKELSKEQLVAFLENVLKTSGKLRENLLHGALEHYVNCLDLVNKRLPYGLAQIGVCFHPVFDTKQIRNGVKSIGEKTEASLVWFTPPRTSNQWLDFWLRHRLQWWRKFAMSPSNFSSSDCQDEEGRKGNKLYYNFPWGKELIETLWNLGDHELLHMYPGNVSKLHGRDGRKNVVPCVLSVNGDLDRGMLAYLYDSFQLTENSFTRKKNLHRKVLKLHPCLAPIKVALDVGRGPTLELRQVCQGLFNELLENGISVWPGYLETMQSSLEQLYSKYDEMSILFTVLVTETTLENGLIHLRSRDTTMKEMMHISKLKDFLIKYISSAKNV
Procedure: DNA Polymerization Assay to Monitor Effects on Human Wildtype POLγ and Four Disease-Causing Mutant Variants of Human POLγ.
The ability of small molecules to stimulate the polymerase activity of POLγ was analyzed in a quantitative fluorescence SYBR Green I assay with fluorescence intensity (FI) readout.
In the presence of dNTPs, wild type human POLγ and mutant derivatives thereof were incubated with single-stranded, circular M13mp18 ssDNA hybridized to a short DNA oligonucleotide that functions as a primer for initiation of DNA synthesis. POLγ and mutant derivatives thereof will extend the primer and use the M13mp18 molecule as a template to synthesize long stretches of double-stranded DNA. SYBR Green I, which is a double-stranded DNA-binding dye, was used to quantify formation of double-stranded DNA in the reaction. When bound to double-stranded DNA, SYBR Green I fluorescence increases by up to 100-fold.
The assay was performed in the 384-well plate format. Upon addition of compounds, changes in double-stranded DNA synthesis activity can be monitored by following effects on fluorescent intensity.
The reactions also contained the accessory POLγB subunit, and the human mitochondrial single-stranded DNA binding protein (mtSSB).
The DNA template mixture used in the assay contained 0.5 nM primed M13 mp18 ssDNA, 400 nM mtSSB, 0.1 mM Tris-HCl (pH 8.0), 0.1 mM dNTP, 10 mM MgCl2, 0.1 mg/mL BSA, 1 mM TCEP solution, and 0.02% Triton X-100. The DNA template mixture for the wild type protein contained either 100 μM dNTP, 1 μM dNTP, or 0.1 μM dNTP, designated in Table 2 as 100 μM, 1 μM, and 0.1 μM, respectfully.
Microplates with compounds (0.1 μL in each well) to be tested in the assay were prepared from 10 mM compound stocks in 100% DMSO, and equal amounts of DMSO without any compound were added to positive and negative control wells.
The protein mixture was dispensed (5 μL into each well) into compound plates and incubated at 37° C. for 15 minutes. After incubation, 5 μL of the DNA template mixture was dispensed into each well. The plates were then incubated at 37° C. for 2 hours.
During incubation, a combined stop buffer and detection reagent solution was prepared. The buffer contained 25 mM EDTA (pH 8.0), 0.02% Triton X-100, and SYBR Green I [Invitrogen] diluted 10,000× (for fluorescent readout). EDTA will stop the enzymatic reaction by chelating magnesium ions.

AC50 | Compound
2 µM | Cc1csc(-c2cccc(NS(=O)(=O)c3cc(C)c(Cl)cc3C)c2)n1 [Example 20, 4-chloro-2,5-dimethyl-N-(3-(4-methylthiazol-2-yl)phenyl)benzenesulfonamide]
3 µM | Cc1cnc(-c2cccc(NS(=O)(=O)c3cc(C)c(Cl)cc3C)c2)s1 [Example 21, 4-chloro-2,5-dimethyl-N-(3-(5-methylthiazol-2-yl)phenyl)benzenesulfonamide]
0.7 µM | Cc1cc(S(=O)(=O)Nc2cc(-c3nccs3)ccc2F)c(C)cc1Cl [Example 61, 4-chloro-N-(2-fluoro-5-(thiazol-2-yl)phenyl)-2,5-dimethylbenzenesulfonamide]
> 100 µM | Cc1cc(S(=O)(=O)Nc2cc(F)cc(-c3nccs3)c2)c(C)cc1Cl [Example 62, 4-chloro-N-(3-fluoro-5-(thiazol-2-yl)phenyl)-2,5-dimethylbenzenesulfonamide]
> 100 µM | Cc1cc(S(=O)(=O)Nc2ccc(F)c(-c3nccs3)c2)c(C)cc1Cl [Example 63, 4-chloro-N-(4-fluoro-3-(thiazol-2-yl)phenyl)-2,5-dimethylbenzenesulfonamide]
> 10 µM | Cc1cc(S(=O)(=O)Nc2cn(C)c(-c3ccccc3)n2)c(C)cc1Cl [Example 170, 4-chloro-2,5-dimethyl-N-(1-methyl-2-phenyl-1H-imidazol-4-yl)benzenesulfonamide]
0.4 µM | Cc1cc(S(=O)(=O)Nc2csc(-c3ccccn3)n2)c(C)cc1Cl [Example 173, 4-chloro-2,5-dimethyl-N-(2-(pyridin-2-yl)thiazol-4-yl)benzenesulfonamide]
0.3 µM | Cc1cc(S(=O)(=O)Nc2csc(-c3ccncc3)n2)c(C)cc1Cl [Example 176, 4-chloro-2,5-dimethyl-N-(2-(pyridin-4-yl)thiazol-4-yl)benzenesulfonamide]
1 µM | Cc1cc(S(=O)(=O)Nc2csc(-n3cccn3)n2)c(C)cc1Cl [Example 178, N-(2-(1H-pyrazol-1-yl)thiazol-4-yl)-4-chloro-2,5-dimethylbenzenesulfonamide]

Continued, compound first:

Compound | AC50
Cc1cc(S(=O)(=O)N(C)c2cccc(-c3nccs3)c2)c(C)cc1Cl [Example 22, 4-chloro-N,2,5-trimethyl-N-(3-(thiazol-2-yl)phenyl)benzenesulfonamide] | > 100 µM
Cc1cc(S(=O)(=O)Nc2cccc(C(=O)N[C@H](C)c3ccccc3)c2)c(C)cc1Cl [Example 48, (R)-3-((4-chloro-2,5-dimethylphenyl)sulfonamido)-N-(1-phenylethyl)benzamide] | 9 µM
Cc1cc(S(=O)(=O)Nc2cccc(-c3cc(C4CC4)[nH]n3)c2)c(C)cc1Cl [Example 64, 4-chloro-N-(3-(5-cyclopropyl-1H-pyrazol-3-yl)phenyl)-2,5-dimethylbenzenesulfonamide] | 4 µM
CC[C@@H]1CCCN1C(=O)c1cccc(NS(=O)(=O)c2cc(C)c(Cl)cc2C)c1 [Example 65, (R)-4-chloro-N-(3-(2-ethylpyrrolidine-1-carbonyl)phenyl)-2,5-dimethylbenzenesulfonamide] | 7 µM
Cc1cc(-c2cccc(NS(=O)(=O)c3cc(C)c(Cl)cc3C)c2)n[nH]1 [Example 66, 4-chloro-2,5-dimethyl-N-(3-(5-methyl-1H-pyrazol-3-yl)phenyl)benzenesulfonamide] | 5 µM
Cc1cc(S(=O)(=O)Nc2cccc(C(=O)N3CCC[C@H]3C(C)C)c2)c(C)cc1Cl [Example 67, (S)-4-chloro-N-(3-(2-isopropylpyrrolidine-1-carbonyl)phenyl)-2,5-dimethylbenzenesulfonamide] | 21 µM
Cc1cc(S(=O)(=O)Nc2cccc(-c3cc[nH]n3)c2)c(C)cc1Cl [Example 68, N-(3-(1H-pyrazol-3-yl)phenyl)-4-chloro-2,5-dimethylbenzenesulfonamide] | 2 µM
Cc1cc(S(=O)(=O)Nc2csc(C(=O)N3CCCC3)n2)c(C)cc1Cl [Example 166, 4-chloro-2,5-dimethyl-N-(2-(pyrrolidine-1-carbonyl)thiazol-4-yl)benzenesulfonamide] | 0.4 µM
Cc1cc(S(=O)(=O)Nc2csc(C3CCOCC3)n2)c(C)cc1Cl [Example 167, 4-chloro-2,5-dimethyl-N-(2-(tetrahydro-2H-pyran-4-yl)thiazol-4-yl)benzenesulfonamide] | 2 µM
Cc1cc(S(=O)(=O)Nc2cn(Cc3ccccc3)cn2)c(C)cc1Cl [Example 168, N-(1-benzyl-1H-imidazol-4-yl)-4-chloro-2,5-dimethylbenzenesulfonamide] | > 100 µM
Cc1cc(S(=O)(=O)Nc2cn(-c3ccccc3)cn2)c(C)cc1Cl [Example 169, 4-chloro-2,5-dimethyl-N-(1-phenyl-1H-imidazol-4-yl)benzenesulfonamide] | > 100 µM
Cc1cc(S(=O)(=O)Nc2cnn(-c3ccccc3)n2)c(C)cc1Cl [Example 171, 4-chloro-2,5-dimethyl-N-(2-phenyl-2H-1,2,3-triazol-4-yl)benzenesulfonamide] | > 10 µM
Cc1cc(S(=O)(=O)Nc2csc(C(=O)N(C)CC(N)=O)n2)c(C)cc1Cl [Example 172, N-(2-amino-2-oxoethyl)-4-((4-chloro-2,5-dimethylphenyl)sulfonamido)-N-methylthiazole-2-carboxamide] | > 100 µM
Cc1cc(S(=O)(=O)Nc2csc(C(=O)N3CCC[C@H]3C)n2)c(C)cc1Cl [Example 174, (R)-4-chloro-2,5-dimethyl-N-(2-(2-methylpyrrolidine-1-carbonyl)thiazol-4-yl)benzenesulfonamide] | 0.7 µM
Cc1cc(S(=O)(=O)Nc2csc(C(=O)N(CC(N)=O)C3CCCC3)n2)c(C)cc1Cl [Example 177, N-(2-amino-2-oxoethyl)-4-((4-chloro-2,5-dimethylphenyl)sulfonamido)-N-cyclopentylthiazole-2-carboxamide] | > 100 µM
